From patent US10981908B2, “Aryl hydrocarbon receptor (AHR) modulator compounds” (PHENEX PHARMACEUTICALS AG, priority 2017, dated 2021)

The compounds below were run against T1, AhR (Homo sapiens, UniProt P35869) (assay: AhR direct luciferase reporter assay in HepG2 cells (HepG2 CYP1A1-LUC)). Conditions: luciferase activity after 18 hours, medium with no exogenous AhR agonist or 10 nM VAF347, read-out: AhR potency (AhR antagonistic potency, IC50 class).
T1 construct: The HepG2 CYP1A1-Luc cells do express basal luciferase activity that can be increased via potent AhR agonists or decreased via potent AhR antagonists; endogenous in cells
T1 sequence (P35869 11-848): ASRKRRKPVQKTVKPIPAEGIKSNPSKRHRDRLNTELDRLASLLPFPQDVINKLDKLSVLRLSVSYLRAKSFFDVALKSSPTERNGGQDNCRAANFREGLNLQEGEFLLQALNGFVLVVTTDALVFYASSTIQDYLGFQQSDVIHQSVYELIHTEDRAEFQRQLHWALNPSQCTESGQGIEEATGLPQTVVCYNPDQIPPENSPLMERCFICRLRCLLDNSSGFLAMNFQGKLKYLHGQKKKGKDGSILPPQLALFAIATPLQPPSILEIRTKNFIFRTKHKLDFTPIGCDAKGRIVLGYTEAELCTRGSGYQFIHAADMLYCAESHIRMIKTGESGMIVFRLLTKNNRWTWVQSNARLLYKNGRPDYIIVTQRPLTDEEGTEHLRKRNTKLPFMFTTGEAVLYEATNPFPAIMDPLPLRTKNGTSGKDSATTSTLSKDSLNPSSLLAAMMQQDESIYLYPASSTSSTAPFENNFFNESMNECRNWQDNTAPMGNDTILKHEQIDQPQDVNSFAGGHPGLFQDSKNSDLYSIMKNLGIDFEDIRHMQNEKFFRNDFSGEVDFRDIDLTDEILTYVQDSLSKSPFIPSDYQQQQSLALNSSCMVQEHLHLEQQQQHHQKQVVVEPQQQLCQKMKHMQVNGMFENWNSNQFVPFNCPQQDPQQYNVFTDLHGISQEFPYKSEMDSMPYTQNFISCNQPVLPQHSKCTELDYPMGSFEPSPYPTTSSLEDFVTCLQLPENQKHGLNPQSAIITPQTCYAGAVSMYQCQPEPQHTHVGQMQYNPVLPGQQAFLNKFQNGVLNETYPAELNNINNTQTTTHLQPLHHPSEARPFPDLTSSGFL
Type: cell-based
Source text: AhR Direct Luciferase Reporter Assay in HepG2 Cells
A stable cell line (HepG2 CYP1A1-LUC) was used in which part of the promoter region of the human CYP1A1 gene is stably integrated into the genome of human HepG2 hepatocytes (DSZM #ACC 180) in front of a Photinus pyralis Firefly Luciferase gene. A 1210 bp fragment comprising part of the human CYP1A1 promoter was isolated via SacI and BgIII restriction digestion from Lightswitch Clone S714555 (SwitchGearGenomics) and inserted between the SacI and BgIII sites in pGL4.30 (Promega #E8481) in front of the Firefly Luciferase gene. The resulting vector was linearized with NotI, transfected into HepG2 cells (DSMZ #ACC 180) and stably transfected clones selected with 250 μg/ml Hygromycin B. After repetitive rounds of subcloning and testing for robustly regulated luciferase activity after AhR agonist stimulation, a stable clonal HepG2 CYP1A1-Luc cell line was selected.
The HepG2 CYP1A1-Luc cells do express basal luciferase activity that can be increased via potent AhR agonists or decreased via potent AhR antagonists, added to the growth medium of the cells.
In typical reporter assays performed with this cell line, cells are grown in 96-well plates and AhR modulators are titrated into the growth medium in serial dilutions in RPMI-1640 Medium (Sigma #R7509) supplemented with 8,6% fetal calf serum (Sigma #F7524) and containing either no exogenous AhR agonist or 10 nM of the potent AhR agonist VAF347 (Calbiochem #182690). Cells are further cultivated for 18 hours and luciferase activities are determined from extracts of cells in buffers containing D-Luciferine and ATvP using a LUMIstar Optima microplate Luminometer from BMG Labtech.

IC50 [nM] | SMILES
> 1000 | Cn1ncnc1C(=O)Nc1ccc2cc(-c3ccc(C(=O)O)cc3)[nH]c2n1 [Example 12/1, 4-(6-(1-Methyl-1H-1,2,4-triazole-5-carboxamido)-1H-pyrrolo[2,3-b]pyridin-2-yl)benzoic Acid]
< 100 | Cc1ccc(C(F)(F)F)c(-c2cc3ccc(NC(=O)c4ncnn4C)nc3[nH]2)c1 [Example 1/33, 1-Methyl-N-(2-(5-methyl-2-(trifluoromethyl)phenyl)-1H-pyrrolo[2,3-b]pyridin-6-yl)-1H-1,2,4-triazole-5-carboxamide]
< 100 | Cn1ncnc1C(=O)Nc1ccc2cc(-c3cc(Cl)ccc3C(F)F)[nH]c2n1 [Example 1/34, N-(2-(5-Chloro-2-(difluoromethyl)phenyl)-1H-pyrrolo[2,3-b]pyridin-6-yl)-1-methyl-1H-1,2,4-triazole-5-carboxamide]
< 100 | Cn1ncnc1C(=O)Nc1ccc2cc(-c3ccoc3C(F)F)[nH]c2n1 [Example 1/32, N-(2-(2-(Difluoromethyl)furan-3-yl)-1H-pyrrolo[2,3-b]pyridin-6-yl)-1-methyl-1H-1,2,4-triazole-5-carboxamide]

The remaining lines, values behind:

SMILES | IC50 [nM]
Cc1ocnc1C(=O)Nc1ccc2cc(-c3ccccc3C(F)F)[nH]c2n1 [5/1] | < 100
Cn1nc(C(N)=O)cc1C(=O)Nc1ccc2cc(-c3ccccc3C(F)(F)F)[nH]c2n1 [Example 2, 1-Methyl-n^5-(2-(2-(trifluoromethyl)phenyl)-1H-pyrrolo[2,3-b]pyridin-6-yl)-1H-pyrazole-3,5-dicarboxamide] | 100 to 1000
Cn1nccc1C(=O)Nc1ccc2cc(-c3cccc(OC(F)(F)F)c3)[nH]c2n1 [Example 1/5, 1-Methyl-N-(2-(3-(trifluoromethoxy)phenyl)-1H-pyrrolo[2,3-b]pyridin-6-yl)-1H-pyrazole-5-carboxamide] | > 1000
